Results taken from patent US5824700A, “Ortho-quinone derivatives novel synthesis therefor and their use in the inhibition of neoplastic cell growth” (Wisconsin Alumni Research Foundation, priority 1996, dated 1998).
Read-outs that look alike come from different tables or passages of the source.

Tests used:
HT29 = assay: Colony formation / cell survival assay, HT29 colon cancer cells; type: cell-based, human; conditions: for effect on ability of HT29 cells to reproduce / IC50: FIG. 1; for effect on ability of HT29 cells to reproduce: β-lapachone at approximately 10 μM; for IC50: HT-29, HT29, 4 h exposure, read-out: ED50 (the source's name)
Experimental: (§1) The control flasks are treated with DMSO only. […] The remaining flasks are left untouched.
(§2) The cells are monitored for colony formation. […] The plating efficiency for each dish is then calculated.
(§3) The cell lines HT29 and BE are both human colon cancer cell lines which are used to test the effectiveness of a given agent against cancer cell growth and proliferation. […] The HT29 and BE cell cultures were prepared and tested according to the protocol given above.

BE = assay: Colony formation / cell survival assay, BE colon cancer cells; type: cell-based, human; conditions: for effect on ability of BE cells to reproduce / IC50: FIG. 2; for effect on ability of BE cells to reproduce: β-lapachone at approximately 10 μM; for viability at 2 µM / viability at 10 µM / viability at 20 µM / viability at 100 µM / IC50: Homo sapiens; for viability at 2 µM / viability at 10 µM / viability at 20 µM / viability at 100 µM: 4 h, read-out: Fraction of Cell Survival; for IC50: BE, 4 h exposure, read-out: ED50 (the source's name)
Experimental: as §1, §2, §3

A549 = assay: Colony formation / cell survival assay, A549 lung cancer cells; type: cell-based; conditions: Homo sapiens, A549, 4 h; for IC50: A549, 4 h exposure, read-out: ED50 (the source's name)
Experimental: as §1, §2
The compounds tested were β-lapachone, 3-hydroxy-β-lapachone, 3,3-DINOR-dunnione (designated "Drug A" in the figures), 3-NOR-dunnione (designated "Drug B" in the figures) and dunnione itself (designated "Drug C" in the figures). A legend for the figures is provided below. The cell lines were cultured and the compounds evaluated according to the standard protocol described above.

MCF7 = assay: Colony formation / cell survival assay, MCF7 breast cancer cells; conditions: Homo sapiens, MCF7, 4 h
Experimental: 10 standard culture flasks for each drug to be tested are plated with 5×10^5 cells in 5 mL of media and allowed to incubate for 16-24 hours at 37° C.
Fresh stocks of the compounds to be evaluated are prepared in sterile DMSO. For each drug, two of the ten culture flasks prepared on Day 1 are used as controls. The control flasks are treated with DMSO only. […] The remaining flasks are left untouched. The cells are incubated for 4 hours at 37° C.
After 4 hours the control flasks are counted (2 counts for each flask) and the cells per mL calculated based on the average of the control counts. The cells are then replated into six 60 mm dishes for each flask from dilutions based on the cells/mL of the control. (In the various test runs, cell concentrations ranged from approximately 50 to approximately 800 cells per mL.) Day 15-20:
The cells are monitored for colony formation. […] The plating efficiency for each dish is then calculated. The plating efficiencies of the six dishes for each flask are averaged and the standard deviation is calculated. The fraction of cell survival at each concentration is determined based on the controls and plotted as log fraction of cell survival±standard deviation versus the dose of the compound.
In the same fashion as the above tests, several lapachone and dunnione derivatives were evaluated for their efficacy in inhibiting the proliferation of breast cancer cells. In this instance, the cancer cell line utilized was MCF7.

[1] = system: human prostate cancer cell line PC-3; assay: IC50 determination (DNA amount and anchorage-dependent colony formation), prostate cancer PC-3; type: cell-based; conditions: PC-3, 24 hours exposure
Experimental: (§4) Table 15 lists the IC50 determinations of Drugs B, C, and D against the human prostate cancer cell line PC-3 and the human breast cancer cell line MCF7. IC50 calculations for each cell line were determined by DNA amount and anchorage-dependent colony formation (CF) as described elsewhere. (See Planchon et al. Cancer Res. 55, 3706 (1995), incorporated herein by reference.) In short, IC50 calculations for each cell line were determined by DNA amount and anchorage-dependent colony formation (CF) assays. For the CF assay, cells were seeded at 500 viable cells/well in 6-well plates and incubated overnight, then treated with equal volumes of media containing β-lapachone at final concentrations ranging from 0.005 to 50 μM in half-log increments (controls were treated with 0.25% DMSO, equivalent to the highest dose of β-lapachone used) for 4 hours or for continuous 12 hour exposures. Plates (3 wells/condition) were stained with crystal violet, and colonies of >50 normal-appearing cells were enumerated. IC50 values for various cells were calculated using drug doses with numbers of colonies surrounding 50% of control. For DNA assays, plates were harvested for IC50 determinations 8 days after treatment using a CytoFluor 2350 fluorescence measurement system (Millipore). Six-well samplings were included in the calculation of DNA fluor units for each dose. A graph of β-lapachone dose versus percentage control DNA in fluor units was used to calculate each IC50. The cells were exposed for 24 hours to the tricyclic naphthoquinones. All experiments were repeated at least twice, each in duplicate. PC-3 is an androgen-independent prostate cancer cell line.

[2] = system: human breast cancer cell line MCF7; assay: IC50 determination (DNA amount and anchorage-dependent colony formation), breast cancer MCF7; type: cell-based; conditions: MCF7, 24 hours exposure
Experimental: as §4

Topoisomerase II = assay: Topoisomerase II-mediated DNA cleavage (electrophoresis); type: biochemical, mammalian; conditions: gels of FIGS. 9A and 9B
Experimental: Analogous experiments to assay the ability of several of the compounds described herein to induce Topoisomerase II (Topo II)-mediated DNA cleavage were also performed. The results of one such experiment are depicted in the electrophoretegram of FIGS. 9A and 9B. Here, DNA was incubated in the presence of Topo II and several different compounds described herein.
A legend for the compounds which were tested in FIGS. 9A and 9B is as follows: [drawing 25] Lane 1: R=H (β-lapachone) Lane 2: R=OH
In the far left-hand lane of […], DNA alone is shown. Moving to the right, the next lane contains DNA and Topo II (mammalian). Lanes 1-9 of FIGS. 9A and 9B contain a series of concentrations of drugs (see Legend, above) in the presence of DNA and Topo II. Each set of lanes for each drug spans 3 orders of magnitude in concentration (0.1, 1, 10, and 100 μM). […] However, Lanes 1-9, which contain DNA, Topo II, and a drug according to the present invention, show extensive DNA cleavage.

[3] = Homo sapiens, HT-29, 4 h, read-out: Fraction of Cell Survival
[4] = read-out: Fraction of Cell Survival
[5] = read-out: ED50, MCF7, 4 h exposure, FIG. 6
[6] = read-out: Fraction of Cell Survival, A549, FIG. 4, 1 μM, 4 h
[7] = read-out: Fraction of Cell Survival, A549, FIG. 4, 5 μM, 4 h
[8] = read-out: Fraction of Cell Survival, A549, FIG. 4, 10 μM, 4 h
[9] = read-out: Fraction of Cell Survival, A549, FIG. 4, 50 μM, 4 h
[10] = read-out: ED50, MCF7, 4 h exposure, FIG. 7
[11] = read-out: Fraction of Cell Survival, MCF7, FIG. 7, 1 μM, 4 h
[12] = read-out: Fraction of Cell Survival, MCF7, FIG. 7, 5 μM, 4 h
[13] = read-out: Fraction of Cell Survival, MCF7, FIG. 7, 10 μM, 4 h
[14] = read-out: Fraction of Cell Survival, MCF7, FIG. 7, 50 μM, 4 h
[15] = read-out: Fraction of Cell Survival, A549, FIG. 5, 1 μM, 4 h
[16] = read-out: Fraction of Cell Survival, A549, FIG. 5, 5 μM, 4 h
[17] = read-out: Fraction of Cell Survival, A549, FIG. 5, 10 μM, 4 h
[18] = read-out: Fraction of Cell Survival, A549, FIG. 5, 50 μM, 4 h
[19] = read-out: ED50, MCF7, 4 h exposure, FIG. 8
[20] = read-out: Fraction of Cell Survival, MCF7, FIG. 8, 1 μM, 4 h
[21] = read-out: Fraction of Cell Survival, MCF7, FIG. 8, 5 μM, 4 h
[22] = read-out: Fraction of Cell Survival, MCF7, FIG. 8, 10 μM, 4 h
[23] = read-out: Fraction of Cell Survival, MCF7, FIG. 8, 50 μM, 4 h

Compound: CC1(C)OC2=C(CC1O)C(=O)C(=O)c1ccccc12 (stereo not drawn) [3-hydroxy-β-lapachone]
- effect on ability of HT29 cells to reproduce (HT29): significantly limits the reproductive ability of these cancer cell lines
- viability at 2 µM (HT29; [3]): 152%
- viability at 10 µM (HT29; [3]): 119%
- viability at 20 µM (HT29; [3]): 2.32%
- viability at 100 µM (HT29; [3]): 0%
- IC50 (HT29; Homo sapiens): 15400 nM
- effect on ability of BE cells to reproduce (BE): significantly limits the reproductive ability of these cancer cell lines
- viability at 2 µM (BE): 92.9%
- viability at 10 µM (BE): 39.2%
- viability at 20 µM (BE): 1.02%
- viability at 100 µM (BE): 0%
- IC50 (BE): 600 nM
- IC50 (A549; FIG. 3): 18000 nM
- viability at 1 µM (A549; [4]): 304%
- viability at 5 µM (A549; [4]): 239%
- viability at 10 µM (A549; [4]): 153%
- viability at 50 µM (A549; [4]): 0%
- IC50 (MCF7; [5]): 7700 nM
- viability at 1 µM (MCF7; [4]): 106%
- viability at 5 µM (MCF7; [4]): 68%
- viability at 10 µM (MCF7; [4]): 0%
- viability at 50 µM (MCF7; [4]): 0.32%

Compound: CC1CC2=C(O1)c1ccccc1C(=O)C2=O (centres unmarked) [Drug A]
- IC50 (A549; FIG. 4): 6000 nM
- viability at 1 µM (A549; [6]): 111%
- viability at 5 µM (A549; [7]): 121%
- viability at 10 µM (A549; [8]): 1.72%
- viability at 50 µM (A549; [9]): 0.23%
- IC50 (MCF7; [10]): 1600 nM
- viability at 1 µM (MCF7; [11]): 85.4%
- viability at 5 µM (MCF7; [12]): 0.36%
- viability at 10 µM (MCF7; [13]): 0.18%
- viability at 50 µM (MCF7; [14]): 0.18%

Compound: CC1OC2=C(C(=O)C(=O)c3ccccc32)C1C (centres unmarked) [Drug B, 2,3-dimethyl-2,3,4,5-dihydro-naphtho (2,3-b)dihydrofuran-6,7-dione]
- IC50 (A549; FIG. 5): 5600 nM
- viability at 1 µM (A549; [15]): 89.7%
- viability at 5 µM (A549; [16]): 81.9%
- viability at 10 µM (A549; [17]): 0.24%
- viability at 50 µM (A549; [18]): 0%
- IC50 [1]: 700 nM
- IC50 [2]: 500 nM
- IC50 (MCF7; [19]): 1400 nM
- viability at 1 µM (MCF7; [20]): 8.88%
- viability at 5 µM (MCF7; [21]): 0.32%
- viability at 10 µM (MCF7; [22]): 0.16%
- viability at 50 µM (MCF7; [23]): 1.54%

Compound: CC1OC2=C(C(=O)C(=O)c3ccccc32)C1(C)C (centres unmarked) [Drug C, 2,3,3-trimethyl-2,3,4,5-tetrahydro-naphtho(2,3-b)dihydrofuran-6,7-dione]
- IC50 (A549; FIG. 5): 4300 nM
- viability at 1 µM (A549; [15]): 110%
- viability at 5 µM (A549; [16]): 40%
- viability at 10 µM (A549; [17]): 0%
- viability at 50 µM (A549; [18]): 0%
- IC50 [1]: 600 nM
- IC50 [2]: 700 nM
- intracellular target (in words) (Topoisomerase II): Topo II is an intracellular target
- IC50 (MCF7; [19]): 1400 nM
- viability at 1 µM (MCF7; [20]): 55.8%
- viability at 5 µM (MCF7; [21]): 0.65%
- viability at 10 µM (MCF7; [22]): 0.32%
- viability at 50 µM (MCF7; [23]): 0.65%

Compound: Cc1cc2c(o1)-c1ccccc1C(=O)C2=O [Drug D]
- IC50 [1]: 900 nM
- IC50 [2]: 700 nM

Compound: CC1(C)CCC2=C(O1)c1ccccc1C(=O)C2=O [β-lapachone, 7,8-dihydro-2,2-dimethyl-2H-naphtho(2,3-b)dihydropyran-7,8-dione, reference compound]
- effect on ability of HT29 cells to reproduce (HT29): significantly impacts upon the ability of the HT29 and BE cells to reproduce
- viability at 1 µM (HT29; [3]): 96.7%
- viability at 5 µM (HT29; [3]): 49%
- viability at 10 µM (HT29; [3]): 0%
- viability at 50 µM (HT29; [3]): 0%
- IC50 (HT29; Homo sapiens): 4800 nM
- effect on ability of BE cells to reproduce (BE): significantly impacts upon the ability of the HT29 and BE cells to reproduce
- viability at 2 µM (BE): 1.17%
- viability at 10 µM (BE): 15.8%
- viability at 20 µM (BE): 4.39%
- viability at 100 µM (BE): 0%
- IC50 (BE): 8000 nM
- IC50 (A549; FIG. 3): 6100 nM
- IC50 (A549; FIG. 4): 5800 nM
- viability at 1 µM (A549; read-out: Fraction of Cell Survival, A549, FIG. 3, 1 μM, 4 h): 265%
- viability at 5 µM (A549; read-out: Fraction of Cell Survival, A549, FIG. 3, 5 μM, 4 h): 158%
- viability at 10 µM (A549; read-out: Fraction of Cell Survival, A549, FIG. 3, 10 μM, 4 h): 0%
- viability at 50 µM (A549; read-out: Fraction of Cell Survival, A549, FIG. 3, 50 μM, 4 h): 17.7%
- viability at 1 µM (A549; [6]): 85.5%
- viability at 5 µM (A549; [7]): 89.7%
- viability at 10 µM (A549; [8]): 0.69%
- viability at 50 µM (A549; [9]): 0%
- intracellular target (in words) (Topoisomerase II): Topo II is an intracellular target
- IC50 (MCF7; [5]): 9800 nM
- IC50 (MCF7; [10]): 1600 nM
- viability at 1 µM (MCF7; read-out: Fraction of Cell Survival, MCF7, FIG. 6, 1 μM, 4 h): 150%
- viability at 5 µM (MCF7; read-out: Fraction of Cell Survival, MCF7, FIG. 6, 5 μM, 4 h): 0%
- viability at 10 µM (MCF7; read-out: Fraction of Cell Survival, MCF7, FIG. 6, 10 μM, 4 h): 0%
- viability at 50 µM (MCF7; read-out: Fraction of Cell Survival, MCF7, FIG. 6, 50 μM, 4 h): 0.32%
- viability at 1 µM (MCF7; [11]): 92%
- viability at 5 µM (MCF7; [12]): 0.36%
- viability at 10 µM (MCF7; [13]): 0.18%
- viability at 50 µM (MCF7; [14]): 0.09%
